From ChEMBL document CHEMBL1201862, “PubChem BioAssay data set” (2004) come the findings set out here.

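Each compound was tested at five concentrations against cells in 96-well plates for 48 hours. GI50 marks 50% less growth.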 Calls of active or inactive are those of the source. Cut-off read from the data, not from the text of the source: active = GI50 up to about 1.1 µM and inactive = higher. Residues, ends and D or L forms follow the SMILES beside them. *: point of attachment. Boc = CC(C)(C)OC(=O)* Where only a bound is given, the exact number is not on record here.

Holding throughout (test): inhibition of tumour cell growth, NCI panel, 48 h
Experiment [1] relates to 786-0.
Experiment [2] relates to A498.
In experiment [3] the test system is A549.
Experiment [4] deals with COLO 205.
Experiment [5] has as its system HCT-116.
In experiment [6] the test system is HCT-15.
Experiment [7] has as its system M14.
Experiment [8] has as its system NCI-H460.
Experiment [9] has as its system OVCAR-4.
For experiment [10], the system named is OVCAR-5.
Experiment [11] relates to PC-3.
The test system of experiment [12] is RPMI-8226.
Experiment [13] concerns SF-539.
For experiment [14], the system named is SK-MEL-2.
In experiment [15] the test system is SK-MEL-5.
Experiment [16] has as its system SR.
In experiment [17] the test system is SW-620.
Experiment [18] relates to U-251.
Experiment [19] has as its system UO-31.
Experiment [20] has as its system SNB-75.

With `COc1ccc(C2SCC(=O)N2c2ccc(-c3ccc(-n4c(-c5ccccc5)nc5ccccc5c4=O)cc3)cc2)cc1` (stereo not given), the GI50 was 36.1 µM (inactive) in experiment [1]; > 100 µM (inactive) in [2]; > 100 µM (inactive) in experiment [3]; 39 µM (inactive) in experiment [4]; 57.9 µM (inactive) in [5]; 44.5 µM in experiment [6]. For the same compound, the GI50 in [7] was 85.7 µM (inactive); in experiment [8], 34.4 µM (inactive); in [9], 42.4 µM (inactive); in [10] it was 28.5 µM (inactive); in experiment [11], 34 µM (inactive); in [12] it was 21.6 µM (inactive). Besides, the GI50 is 74.8 µM (inactive) in experiment [13]; 26.6 µM (inactive) in experiment [14]; 26.9 µM (inactive) in experiment [15]; 19.5 µM (inactive) in experiment [16]; 94.4 µM (inactive) in experiment [17]; 48.5 µM (inactive) in experiment [18]. Also, the GI50 in [19] was > 100 µM (inactive).

For `CCOC(=O)/C(C#N)=C1\c2c([nH]c(=S)[nH]c2=O)Oc2ccc3ccccc3c21`, the GI50 is 53.8 µM (inactive) in experiment [1]; 36.6 µM (inactive) in [2]; 1.67 µM (inactive) in [3]; 19.5 µM (inactive) in experiment [4]; 67.3 µM (inactive) in experiment [5]; 71.6 µM in experiment [6]. For the same compound, the GI50 in experiment [7] is 43.8 µM (inactive); in experiment [8], 0.0857 µM (active); in experiment [9], > 100 µM (inactive); in experiment [10], > 100 µM (inactive); in experiment [11], 34 µM (inactive); in experiment [12] it was 33 µM (inactive). Besides, the GI50 in experiment [14] was 13 µM (inactive); in experiment [15], 14 µM (inactive); in experiment [20] it was 23.3 µM (inactive); in experiment [16], 49.1 µM (inactive); in [17], 4.06 µM (inactive); in [18], 23.7 µM (inactive). Also, the GI50 in experiment [19] is 20 µM (inactive).

`CC1(C)N=C(N)N=C(N)N1c1cccc(OCCOc2ccc([N+](=O)[O-])cc2)c1`: the GI50 was 4.99 µM (inactive) in experiment [1]; > 100 µM (inactive) in experiment [2]; 4.48 µM (inactive) in experiment [3]; 37.4 µM (inactive) in [4]; 4.81 µM (inactive) in experiment [5]; greater than 100 µM in experiment [6]. Besides, the GI50 in [7] was 34.8 µM (inactive); in experiment [8] it was 7.53 µM (inactive); in [9], 63.5 µM (inactive); in experiment [10], > 100 µM (inactive); in experiment [11], 0.822 µM (active); in [12], 16.5 µM (inactive). The GI50 is 15.2 µM (inactive) in experiment [13]; 8.26 µM (inactive) in experiment [14]; 69.5 µM (inactive) in experiment [15]; 0.238 µM (active) in experiment [16]; 3.68 µM (inactive) in [17]; 7.33 µM (inactive) in experiment [18].

On to `O=C1CC(NC(=O)C(F)(F)F)c2c1csc2Br` (stereo not given), for which the GI50 in [1] was 26.5 µM (inactive); in experiment [2] it was 45.3 µM (inactive); in experiment [3], > 100 µM (inactive); in experiment [4] it was > 100 µM (inactive); in [5], 32.8 µM (inactive); in experiment [6], 88.5 µM. The GI50 in experiment [7] was 88.3 µM (inactive); in experiment [8] it was 1.51 µM (inactive); in experiment [9] it was 58.5 µM (inactive); in experiment [10], 2.24 µM (inactive); in experiment [11], > 100 µM (inactive); in experiment [12], 32.6 µM (inactive). In addition, the GI50 in experiment [13] was 74.1 µM (inactive); in [14], > 100 µM (inactive); in experiment [15] it was 64.9 µM (inactive); in experiment [16] it was 36.9 µM (inactive); in experiment [17], 31.8 µM (inactive); in experiment [18] it was > 100 µM (inactive). Also, the GI50 in experiment [19] was 45.5 µM (inactive).

As to `COC(=O)c1cc(NC(=O)Cc2c[nH]c3ccccc23)cn1C`, the GI50 is > 100 µM (inactive) in experiment [1]; > 100 µM (inactive) in experiment [2]; 70.5 µM (inactive) in experiment [3]; 82 µM (inactive) in experiment [4]; 71.4 µM (inactive) in experiment [5]; 62.5 µM in experiment [6]. Also, the GI50 was > 100 µM (inactive) in experiment [7]; 70.5 µM (inactive) in [8]; 40.4 µM (inactive) in experiment [9]; > 100 µM (inactive) in [10]; 44.6 µM (inactive) in experiment [11]; 21.3 µM (inactive) in experiment [12]. In addition, the GI50 in [13] was > 100 µM (inactive); in experiment [14] it was 81.7 µM (inactive); in [15], 70.3 µM (inactive); in [16], 39.4 µM (inactive); in experiment [17], > 100 µM (inactive); in experiment [18], 68.4 µM (inactive). Besides, the GI50 in experiment [19] was 23.6 µM (inactive).

Turning to `COS(C)(=O)=O` [METHANESULFONIC ACID METHYL ESTER], the GI50 in experiment [1] is > 2 µM (inactive); in experiment [2] it was > 2 µM (inactive); in [3] it was > 2 µM (inactive); in experiment [4], > 2 µM (inactive); in experiment [5] it was > 2 µM (inactive); in [6], greater than 2 µM. The GI50 in [7], in experiment [8], in experiment [9], in experiment [10], in experiment [11] and in [12] was > 2 µM (inactive) throughout. Moreover, the GI50 in experiment [13], in experiment [14], in experiment [20], in experiment [16], in experiment [17] and in experiment [18] was > 2 µM (inactive) throughout. In addition, in experiment [19], the GI50 is > 2 µM (inactive).

Regarding `Cc1cn(C2CC(COCc3ccccc3)N(CCO[Si](C)(C)C(C)(C)C)O2)c(=O)[nH]c1=O` (stereo not given), the GI50 was 27.9 µM (inactive) in [1]; 15.2 µM (inactive) in experiment [2]; 15.1 µM (inactive) in [3]; 15.1 µM (inactive) in experiment [4]; 16.8 µM (inactive) in experiment [5]; 15 µM (inactive) in experiment [7]. Besides, the GI50 in experiment [8] is 18.5 µM (inactive); in experiment [9], 17.9 µM (inactive); in experiment [10], 17.7 µM (inactive); in [11], 5.28 µM (inactive); in [12], 15.1 µM (inactive); in [13], 19.1 µM (inactive). Also, the GI50 in [14] is 16.4 µM (inactive); in experiment [15], 2.88 µM (inactive); in experiment [16] it was 35.1 µM (inactive); in experiment [17], 15.5 µM (inactive); in experiment [18], 19.2 µM (inactive); in [19], 13.8 µM (inactive).

`N=C/N=C/C(=S)O[C@@H]1C(=O)N2CCC[C@@]23CCCC[C@@H]13`: the GI50 in [1] was > 12.5 µM (inactive); in [2] it was > 12.5 µM (inactive); in [3] it was > 12.5 µM (inactive); in experiment [4], > 12.5 µM (inactive); in experiment [5], > 12.5 µM (inactive); in experiment [6] it was greater than 12.5 µM. Further, the GI50 in experiment [7], in experiment [8], in [9], in experiment [10], in experiment [11] and in experiment [12] was > 12.5 µM (inactive) each time. The GI50 in [14], in experiment [15], in [20], in experiment [16], in [18] and in experiment [19] was > 12.5 µM (inactive) throughout.

As for `CC(C)(C)OC(=O)NC(Cc1ccc(O)cc1)C(=O)NC(CCCCN)C(=O)O` (stereo not drawn) (Boc-Tyr-Lys-OH; configuration not given here), the GI50 in [1] was 28.4 µM (inactive); in experiment [2], 24.8 µM (inactive); in experiment [3], 40.4 µM (inactive); in [5] it was 16.9 µM (inactive); in experiment [6], greater than 10 µM; in experiment [7], 17.4 µM (inactive). The GI50 in experiment [8] was 25.2 µM (inactive); in [9] it was 17.5 µM (inactive); in [10] it was 25 µM (inactive); in experiment [11], 44.9 µM (inactive); in experiment [12], 32.9 µM (inactive); in experiment [14] it was 20.2 µM (inactive). The GI50 in [15] was 28.1 µM (inactive); in experiment [20] it was 31.6 µM (inactive); in experiment [16], 28.6 µM (inactive); in experiment [17], 33.3 µM (inactive); in experiment [18] it was 20.9 µM (inactive); in experiment [19] it was 19.7 µM (inactive).

Regarding `C=C(C)C1CCC2(C)C1CCC1(C)C2CCC2C3(C)C4OC(OC4=O)C(C)(C)C3CCC21C` (stereo not given), the GI50 in experiment [1] was > 100 µM (inactive); in [2] it was > 100 µM (inactive); in experiment [3], > 100 µM (inactive); in [4], 48.3 µM (inactive); in experiment [5] it was > 100 µM (inactive); in experiment [6] it was greater than 100 µM. Also, the GI50 in [7], in experiment [8], in [10], in [11], in experiment [12] and in [13] was > 100 µM (inactive) in each case. In addition, the GI50 in [14], in [15], in [20], in experiment [16], in experiment [17] and in [18] was > 100 µM (inactive) each time. Moreover, the GI50 in [19] is > 100 µM (inactive).

In the case of `Cc1nc(Nc2nc3ccccc3[nH]2)nc(Cl)c1CCCl`, the GI50 in experiment [1] is > 100 µM (inactive); in experiment [2], > 100 µM (inactive); in experiment [3], > 100 µM (inactive); in experiment [4], > 100 µM (inactive); in [5] it was > 100 µM (inactive); in experiment [6] it was greater than 100 µM. Besides, the GI50 in experiment [7], in experiment [8], in [9], in experiment [11], in experiment [12] and in experiment [13] was > 100 µM (inactive) each time. For the same compound, the GI50 was > 100 µM (inactive) in experiment [14]; > 100 µM (inactive) in [15]; 89.3 µM (inactive) in [20]; > 100 µM (inactive) in experiment [16]; > 100 µM (inactive) in experiment [17]; 49 µM (inactive) in [18]. Further, the GI50 in experiment [19] was > 100 µM (inactive).
